Reference: article PMC7265429, “Characterization of a new small-molecule inhibitor of HDAC6 in glioblastoma” (Cell Death & Disease, 2020)

Test system: GNS166 cells
Assay: Microarray whole-transcriptome gene expression analysis
Format: cell-based, human
Conditions: DMSO vs SAHA, downregulated
Description: Whole-transcriptome analysis was performed from 300 ng of RNA using HuGene-2_0-st-v1 expression array (Affymetrix), which covers 48,226 transcripts. Raw data were first checked for quality purposes through the Affymetrix® Expression Console™ Software v1.4.1 and TAC software v4.0. Then, data were normalized using the Robust Multi-array Average (RMA) and analyzed by Limma tool. Probesets with FDR-corrected p-values smaller than 0.05 were selected. Functional enrichment on Gene Ontology (GO) biological processes was performed on a smaller subset of the differentially expressed genes (corrected p-value < 0.001) by means of Broad Institute GSEA. […] The data that support this study have been deposited in NCBI´s Gene Expression Omnibus and are accessible through GEO series accession number GSE143887.

O=C(CCCCCCC(=O)Nc1ccccc1)NO [SAHA, Suberoylanilide hydroxamic acid]
logFC GTF2IRD2 (transcript TC0700011518.hg.1): -2.067
logFC GBAS (transcript TC0700013363.hg.1): -1.318
logFC NDUFB2 (transcript TC0700013468.hg.1): -1.3
logFC MSRA (transcript TC0800006692.hg.1): -1.45
logFC CYC1 (transcript TC0800009239.hg.1): -1.06
logFC PBK (transcript TC0800009970.hg.1): -1.706
logFC ANK1 (transcript TC0800010252.hg.1): -2.257
logFC NSMAF (transcript TC0800010553.hg.1): -1.838
logFC CPA6 (transcript TC0800010708.hg.1): -2.501
logFC HAS2 (transcript TC0800011646.hg.1): -1.946
logFC FXN (transcript TC0900007494.hg.1): -0.9868
logFC NEK6 (transcript TC0900008716.hg.1): -1.139
logFC ARHGEF39 (transcript TC0900009948.hg.1): -1.156
logFC KIAA0368 (transcript TC0900011200.hg.1): -1.9364
logFC SUSD1 (transcript TC0900011220.hg.1): -2.309
logFC PHF19 (transcript TC0900011388.hg.1): -2.061
logFC CIZ1 (transcript TC0900011626.hg.1): -1.331
logFC TOR1A (transcript TC0900011709.hg.1): -1.605
logFC VAV2 (transcript TC0900011864.hg.1): -1.105
logFC ANAPC16 (transcript TC1000007986.hg.1): -1.273
logFC PLEKHS1 (transcript TC1000008955.hg.1): -2.168
logFC SEPHS1 (transcript TC1000009844.hg.1): -1.411
logFC EPC1 (transcript TC1000010256.hg.1): -1.207
logFC PBLD (transcript TC1000010843.hg.1): -1.5
logFC DNAJB12 (transcript TC1000010990.hg.1): -1.539
logFC PRDX3 (transcript TC1000011993.hg.1): -0.8845
logFC MKI67 (transcript TC1000012235.hg.1): -1.335
logFC AS3MT (transcript TC1000012496.hg.1): -1.5939
logFC PARVA (transcript TC1100006879.hg.1): -1.499
logFC CCND1 (transcript TC1100008236.hg.1): -0.9478
logFC TSKU (transcript TC1100008514.hg.1): -1.319
logFC NTM (transcript TC1100009561.hg.1): -2.198
logFC IFITM3 (transcript TC1100009657.hg.1): -1.487
logFC FOSL1 (transcript TC1100011259.hg.1): -2.603
logFC TRIM22 (transcript TC1100012957.hg.1): -3.047
logFC CHEK1 (transcript TC1100013111.hg.1): -0.9424
logFC CDCA5 (transcript TC1100013184.hg.1): -1.4587
logFC CLCF1 (transcript TC1100013192.hg.1): -1.898
logFC TSPAN9 (transcript TC1200006520.hg.1): -1.358
logFC RAD51AP1 (transcript TC1200006561.hg.1): -1.95
logFC C12orf57 (transcript TC1200006656.hg.1): -1.605
logFC ESPL1 (transcript TC1200007707.hg.1): -1.687
logFC IKZF4 (transcript TC1200007822.hg.1): -1.324
logFC FOXM1 (transcript TC1200009621.hg.1): -2.01
logFC CDCA3 (transcript TC1200009759.hg.1): -2.054
logFC MFAP5 (transcript TC1200009834.hg.1): -1.349
logFC TAS2R10 (transcript TC1200009919.hg.1): -2.012
logFC MCRS1 (transcript TC1200010633.hg.1): -1.188
logFC MMAB (transcript TC1200011873.hg.1): -1.164
logFC WSB2 (transcript TC1200012105.hg.1): -1.343
logFC CIT (transcript TC1200012143.hg.1): -1.292
logFC TAPBPL (transcript TC1200012584.hg.1): -1.336
logFC PRR4 (transcript TC1200012755.hg.1): -1.713
logFC R3HDM2 (transcript TC1200012808.hg.1): -1.233
logFC PHF11 (transcript TC1300007167.hg.1): -1.841
logFC ITGBL1 (transcript TC1300007870.hg.1): -1.539
logFC DIAPH3 (transcript TC1300009088.hg.1): -1.66
logFC GAS6 (transcript TC1300009924.hg.1): -1.149
logFC RHOJ (transcript TC1400007404.hg.1): -2.1714
logFC BTBD6 (transcript TC1400008476.hg.1): -1.003
logFC AJUBA (transcript TC1400010715.hg.1): -1.776
logFC ARHGAP11B (transcript TC1500006785.hg.1): -1.512
logFC CCNB2 (transcript TC1500007392.hg.1): -2.179
logFC TPM1 (transcript TC1500007510.hg.1): -1.243
logFC KIF23 (transcript TC1500007699.hg.1): -1.664
logFC MAN2A2 (transcript TC1500008341.hg.1): -1.396
logFC LCTL (transcript TC1500009830.hg.1): -1.502
logFC PRC1 (transcript TC1500010463.hg.1): -1.211
logFC ARHGAP11B (transcript TC1500010707.hg.1): -1.7076
logFC C16orf62 (transcript TC1600007113.hg.1): -1.881
logFC PLK1 (transcript TC1600007235.hg.1): -1.599
logFC ARL2BP (transcript TC1600007992.hg.1): -1.083
logFC SHCBP1 (transcript TC1600010168.hg.1): -1.56
logFC XAF1 (transcript TC1700006709.hg.1): -1.919
logFC MPDU1 (transcript TC1700006758.hg.1): -1.716
logFC GOSR1 (transcript TC1700007454.hg.1): -1.325
logFC CCL2 (transcript TC1700007557.hg.1): -1.8857
logFC ABCC3 (transcript TC1700008263.hg.1): -2.846
logFC BIRC5 (transcript TC1700009043.hg.1): -1.565
logFC AURKB (transcript TC1700009679.hg.1): -1.67
logFC CENPV (transcript TC1700009888.hg.1): -1.862
logFC MED24 (transcript TC1700010599.hg.1): -1.405
logFC TOP2A (transcript TC1700010618.hg.1): -1.269
logFC CCDC43 (transcript TC1700010841.hg.1): -0.9856
logFC ALYREF (transcript TC1700012078.hg.1): -1.381
logFC SPAG5 (transcript TC1700012380.hg.1): -2.042
logFC SERPINB8 (transcript TC1800009245.hg.1): -1.496
logFC NFIC (transcript TC1900006628.hg.1): -1.238
logFC SYDE1 (transcript TC1900007208.hg.1): -1.288
